Key:
soybean plants = assay: Herbicide spray tests of transgenic HPPD soy plants (T1/T2) with multiple HPPD-inhibitor herbicides, visual injury; type: in vivo; conditions: for Soybean Response (% Injury): Elite Line Nontransgenic, foliar, V1 stage; for Soybean Response (% Injury), Null: T1 soybean PHP45921A D0223903 SEQ ID NO: 3, null segregants; for Soybean Response (% Injury), Positive: T1 soybean PHP45921A D0223903 SEQ ID NO: 3, positive segregants
Description: T1 plants were evaluated for zygosity. Homozygous single-locus transgenic plants and their corresponding null segregants were identified and T2 true breeding seed was obtained from each. Plants were grown to the V1 to V2 growth stage and then sprayed with the commercial formulation of mesotrione, tembotrione, topramezone, and isoxaflutole. All treatments were applied with nonionic surfactant and ammonium sulfate in a spray volume of 374 L/ha. Multiple rates of each herbicide were applied so a response range could be used to compare the relative tolerance of the different herbicides as well as the relative tolerance of homozygous nulls and positives for each event. The herbicide response for individual treated plants was evaluated by comparing to untreated plants of similar genetic background. Herbicide response ratings were eight days after treatment. Visual injury was on a scale of 0 to 100% injury (0=no effect to 100=dead plant).
T1 soybean plants expressing D0223903 (SEQ ID NO: 3) driven by a synthetic promoter (as described in U.S. Pat. No. 6,072,050) were evaluated with qPCR for the presence of the transgene and null and positive segregants selected. Plants were sprayed at the V1 growth stage with the commercial formulations of mesotrione, tembotrione, topramezone, and isoxaflutole. Two rates of each herbicide were applied foliarly with nonionic surfactant and ammonium sulfate in a spray volume of 374 L/ha. The herbicide response for individual plants was determined by comparing to untreated plants of similar genetic background. Visual injury was on a scale of 0 to 100% injury (0=no effect to 100=dead plant).

maize HPPD [1] = assay: HPPD activity, coupled assay with HGD at 320 nm; substrate saturation kinetics (KM, kcat); type: biochemical; conditions: maize HPPD, wt and variant
From the text: HPPD catalyzes the conversion of 4-hydroxyphenylpyruvate (HPP) to homogentisate. See, FIG. 1. […] However, the product of the ensuing reaction in tyrosine metabolism, maleylacetoacetate, absorbs strongly at 320 nm. Furthermore, the enzyme catalyzing that reaction is also a dioxygenase having similar mechanism and buffer requirements as HPPD, making homogentisate dioxygenase (HGD) an ideal partner in a coupled assay, as shown.
The HDG gene from Pseudomonas aeruginosa (Amaya (2004) Arch Biochem Biophys 421, 135-142) was cloned into pVER7062 and electroporated into E. coli strain BL21(DE3). The enzyme was produced by methods similar to those described for HPPD. The purified enzyme has a KM for homogentisate of 23 uM and a kcat of 100/sec, properties highly suited for instantly converting the homogentisate produced by HPPD to maleylacetoacetate.
HPPD activity was measured by placing an aliquot (e.g., 6 ul) of the substrate HPP at 50-fold the desired final concentration into the wells of a low UV-absorbing assay plate. Reactions were started by adding a mixture (e.g., 294 ul) containing 25 mM Hepes, pH 7, 2 mM ascorbate, 10 uM FeSO4, 1 to 100 uM HPP, 50 nM HGD and 5 to 240 nM HPPD. Absorbance at 320 nm was monitored continuously in a plate-reading spectrophotometer (Spectramax, Molecular Devices).
The catalytic performance of wild-type HPPD and variants generated by shuffling was assessed by determining the substrate saturation parameters. The Michaelis-Menten kinetics protocol of the Spectramax software was customized for HPP concentrations ranging from 3.33 uM to 100 uM, or up to 1 mM if required. Reaction rates were measured as described above for each concentration of HPP. The software returns values of KM and Vmax using the Lineweaver-Burke transformation of the Michaelis-Menten equation.

maize HPPD [2] = assay: ON rate ratio, OFF rate ratio and insensitivity parameter with herbicidal HPPD inhibitors; type: biochemical; conditions: maize HPPD
From the text: To devise a parameter for detecting changes in inhibitor binding affinity, KD, one can utilize the relationship between KD and the rates of binding and release of inhibitor to and from the enzyme. [formula] Higher KD (reduced affinity or increased insensitivity) can be attained with a numerically smaller ON rate, a larger OFF rate or both. […] The ratio of the reaction rate with inhibitor to that without inhibitor during the 70 to 90 second interval of the reaction was termed the “ON rate ratio”. […] Incubations with the same concentrations of enzyme but no mesotrione were done in parallel. After 1 hr at room temperature, 5 to 10 ul of the enzyme-inhibitor complex was dispensed into the wells of the assay plate. Reactions were started with the addition of 290 to 295 ul of 25 mM Hepes, pH 7, 2 mM ascorbate, 10 uM FeSO4, 100 uM HPP and 50 nM HGD. The reactions were monitored at 320 nm for 12 min. Reaction velocity accelerates as inhibitor is released from the enzyme until a steady state is reached, during which the reaction velocity is constant. The ratio of the steady state rate in mixtures containing mesotrione (or other herbicidal inhibitor) to the initial velocity of mixtures lacking inhibitor is termed the “OFF rate ratio”. Another parameter to record is the time span required for the reactions with inhibitor to reach the steady state. […] It is not certain that the steady state attained in the OFF rate reactions actually represents an equilibrium where OFF rates are now equal to ON rates. Because substrate and inhibitors bind in the same site, the high concentration of substrate present may competitively trap the inhibitor and prevent it from binding again. To be sure that improvement in ON rates is being taken into account, the ON and OFF rate ratios were multiplied together and the product is termed the “insensitivity parameter”. […] The variants in Table 9 were grouped according to the parameter in which they are improved compared to wild type. The sequence positions are numbered according to the wild-type maize amino acid sequence of SEQ ID 1. Some substitutions are effective in multiple contexts, as discussed in the next section.

S. bicolor HPPD = assay: ON/OFF rate ratio insensitivity parameters of HPPD with maize motif substitutions; type: biochemical, Sorghum bicolor
Description: [formula] Higher KD (reduced affinity or increased insensitivity) can be attained with a numerically smaller ON rate, a larger OFF rate or both. […] The ratio of the reaction rate with inhibitor to that without inhibitor during the 70 to 90 second interval of the reaction was termed the “ON rate ratio”. […] Incubations with the same concentrations of enzyme but no mesotrione were done in parallel. After 1 hr at room temperature, 5 to 10 ul of the enzyme-inhibitor complex was dispensed into the wells of the assay plate. Reactions were started with the addition of 290 to 295 ul of 25 mM Hepes, pH 7, 2 mM ascorbate, 10 uM FeSO4, 100 uM HPP and 50 nM HGD. The reactions were monitored at 320 nm for 12 min. Reaction velocity accelerates as inhibitor is released from the enzyme until a steady state is reached, during which the reaction velocity is constant. The ratio of the steady state rate in mixtures containing mesotrione (or other herbicidal inhibitor) to the initial velocity of mixtures lacking inhibitor is termed the “OFF rate ratio”. Another parameter to record is the time span required for the reactions with inhibitor to reach the steady state. […] It is not certain that the steady state attained in the OFF rate reactions actually represents an equilibrium where OFF rates are now equal to ON rates. Because substrate and inhibitors bind in the same site, the high concentration of substrate present may competitively trap the inhibitor and prevent it from binding again. To be sure that improvement in ON rates is being taken into account, the ON and OFF rate ratios were multiplied together and the product is termed the “insensitivity parameter”.

Row | Molecule | Soybean Response (% Injury) (soybean plants; rate 26.25 g ai/ha) | Soybean Response (% Injury), Null (soybean plants; rate 26.25 g ai/ha) | Soybean Response (% Injury), Positive (soybean plants; rate 26.25 g ai/ha) | Soybean Response (% Injury) (soybean plants; rate 105 g ai/ha) | Soybean Response (% Injury) (soybean plants; rate 210 g ai/ha) | Soybean Response (% Injury), Null (soybean plants; rate 105 g ai/ha) | Soybean Response (% Injury), Null (soybean plants; rate 210 g ai/ha) | Soybean Response (% Injury), Positive (soybean plants; rate 105 g ai/ha) | Soybean Response (% Injury), Positive (soybean plants; rate 210 g ai/ha) | further results
1 | CS(=O)(=O)c1cc(C(F)(F)F)ccc1C(=O)c1cnoc1C1CC1 [Isoxaflutole] | 72% | 78% | 5% |  |  |  |  |  |  | Soybean Response (% Injury) (soybean plants; rate 13.12 g ai/ha): 70%; Soybean Response (% Injury), Null (soybean plants; rate 13.12 g ai/ha): 80%; Soybean Response (% Injury), Positive (soybean plants; rate 13.12 g ai/ha): 15%
2 | CS(=O)(=O)c1ccc(C(=O)C2C(=O)CCCC2=O)c([N+](=O)[O-])c1 [Mesotrione] |  |  |  | 65% | 75% | 80% | 83% | 10% | 20% | 
3 | CS(=O)(=O)c1ccc(C(=O)C2C(=O)CCCC2=O)c(Cl)c1COCC(F)(F)F [Tembotrione] |  |  |  | 70% | 78% | 75% | 75% | 40% | 33% | 
4 | Cc1c(C(=O)c2cnn(C)c2O)ccc(S(C)(=O)=O)c1C1=NOCC1 [Topramezone] | 78% | 75% | 5% |  |  |  |  |  |  | Soybean Response (% Injury) (soybean plants; rate 52.5 g ai/ha): 78%; Soybean Response (% Injury), Null (soybean plants; rate 52.5 g ai/ha): 78%; Soybean Response (% Injury), Positive (soybean plants; rate 52.5 g ai/ha): 20%
5 | SEQ ID NO: 1 (protein, Zea mays) MGPTPTAAAAGAAVAAASAAEQAAFRLVGHRNFVRFNPRSDRFHTLAFHHVELWCADAASAAGRFSFGLGAPLAARSDLSTGNSAHASLLLRSGSLSFLFTAPYAHGADAATAALPSFSAAAARRFAADHGLAVRAVALRVADAEDAFRASVAAGARPAFGPVDLGRGFRLAEVELYGDVVLRYVSYPDGAAGEPFLPGFEGVASPGAADYGLSRFDHIVGNVPELAPAAAYFAGFTGFHEFAEFTTEDVGTAESGLNSMVLANNSENVLLPLNEPVHGTKRRSQIQTFLDHHGGPGVQHMALASDDVLRTLREMQARSAMGGFEFMAPPTSDYYDGVRRRAGDVLTEAQIKECQELGVLVDRDDQGVLLQIFTKPVGDRPTLFLEIIQRIGCMEKDEKGQEYQKGGCGGFGKGNFSQLFKSIEDYEKSLEAKQAAAAAAAQGS |  |  |  |  |  |  |  |  |  | Km (maize HPPD [1]): 5.2 µM; kcat (maize HPPD [1]): 201; OFF ratio (maize HPPD [2]; Mesotrione): 0.255; ON ratio (maize HPPD [2]; Mesotrione): 0.189; ON × OFF Value (maize HPPD [2]; Mesotrione): 0.048; OFF ratio (maize HPPD [2]; Tembotrione): 0.037; ON ratio (maize HPPD [2]; Tembotrione): 0.232; ON × OFF Value (maize HPPD [2]; Tembotrione): 0.0087
6 | GE010883: Sorghum bicolor variant HPPD with maize motif substitutions, SEQ ID NO: 459 (protein, HPPD variant) MPPTPTTAAATGAAVAAASAEQAAFRLVGHRNFVRVNPRSDRFHTLAFHHVELWCADAASAAGRFSFGLGAPLAARSDLSTGNTAHASLLLRSGALAFLFTAPYAHGADAATASLPSFSAAEARRFAADHGLAVRAVALRVADAEDAFRASVAAGARPAFEPVELGLGFRLAEVELYGDVVLRYVSYPDDADASFLPGFVGVTSPGAADYGLRRFDHIVGNVPELAPAAAYMAGFTGFHEFAEFTAEDVGTTESGLNSMALANNAENVLLPLNEPVHGTKRRSQIQTYLDHHGGPGVQHIALASDDVLRTLREMQARSAMGGFEFLPPPLSEYYDGVRRCAGDVLTEAQIKECQELGVMVDRDDQGVLLQIFTKPVGDRPTLFLEIIQRIGCMEKDEKGQEYQKGGCGGFGKGNFGQLFKSIEDYEKSLEAKQAAAAQGS |  |  |  |  |  |  |  |  |  | improvement of insensitivity vs native protein (S. bicolor HPPD; mesotrione): 6.13 fold; improvement of insensitivity vs native protein (S. bicolor HPPD; tembotrione): 7.71 fold

From patent US9187762B2, “Compositions and methods comprising sequences having hydroxyphenylpyruvate dioxygenase (HPPD) activity” (PIONEER HI-BRED INTERNATIONAL, INC., priority 2010, dated 2015)
